Data from PMC7483469, “The overexpression of OsACBP5 protects transgenic rice against necrotrophic, hemibiotrophic and biotrophic pathogens” (Scientific Reports, 2020).

Molecular target: T1, (His)6-OsACBP5; rOsACBP5 (Oryza sativa, UniProt Q10P83)
T1 construct: gene ACBP5; N-terminal (His)6-tag, plasmid pOS543 (from pRSETA), E. coli BL21(DE3) Star pLysS, soluble fraction, HisTrap
T1 sequence (Q10P83 32-569): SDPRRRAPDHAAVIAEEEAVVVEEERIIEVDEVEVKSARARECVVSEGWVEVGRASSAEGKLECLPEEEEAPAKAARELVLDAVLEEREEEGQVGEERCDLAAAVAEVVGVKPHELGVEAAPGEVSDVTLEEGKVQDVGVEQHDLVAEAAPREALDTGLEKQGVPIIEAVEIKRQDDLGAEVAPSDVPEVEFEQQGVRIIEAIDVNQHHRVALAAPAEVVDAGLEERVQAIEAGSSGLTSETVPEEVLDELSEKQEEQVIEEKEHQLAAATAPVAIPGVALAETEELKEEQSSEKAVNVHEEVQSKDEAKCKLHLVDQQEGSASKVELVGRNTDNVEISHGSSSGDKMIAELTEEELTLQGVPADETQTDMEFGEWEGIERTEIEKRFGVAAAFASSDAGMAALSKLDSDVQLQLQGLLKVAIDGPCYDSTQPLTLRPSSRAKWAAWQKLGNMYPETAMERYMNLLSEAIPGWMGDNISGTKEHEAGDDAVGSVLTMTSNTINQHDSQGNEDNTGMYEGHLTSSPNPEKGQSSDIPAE
Test: isothermal titration calorimetry
Format: binding

Kd: 0.0595 µM
Structure (SMILES): CC/C=C\C/C=C\C/C=C\CCCCCCCC(=O)SCCNC(=O)CCNC(=O)[C@H](O)C(C)(C)COP(=O)(O)OP(=O)(O)OC[C@H]1O[C@@H](n2cnc3c(N)ncnc32)[C@H](O)[C@@H]1OP(=O)(O)O [18:3-acyl-CoA ester]
